The test system of experiment [1] is BXPC3 (pancreas). Kind of experiment: In vitro proliferation screening (Sulforhodamin B) BXPC3. In kind it is cell-based, human. Conditions: BXPC3, 72 h. An excerpt:
(§1) In order to evaluate the antitumor activity of the compounds of the present invention, in particular compound 86, in solid tumors, an in vitro proliferation screening in a panel of 10 different human cancer cell lines derived from solid tumors (see Table 5, below) as a model system.
(§2) Six 10-fold dilutions of compound 86 have been prepared in DMSO, from 5×10^−9 M to 5×10^−4. Single data points have been tested for each concentration. The final concentration of DMSO was 0.1%. The duration of the treatment was 72 hours. The growth inhibition was measured by using Sulforhodamin B, a protein-staining assay in accordance with Vichai V et. al. Nat. Protoc. 2006; 1(3):1112-6. Activity of the agents was determined by evaluating the following parameters: IC50, GI50, IC10, GI10, TGI, LC50, IC90 and GI90 (if these values could be calculated).

The subject of experiment [2] is MDAMB468 (breast). Kind of experiment: In vitro proliferation screening (Sulforhodamin B) MDAMB468. In kind it is cell-based. Conditions: Homo sapiens, MDA-MB-468; MDAMB468, 72 h; unit M.
Excerpt: as §1, §2

The structures appear in SMILES notation. pIC50: −log10 of the molar value.

With `CCN(CC)CC(=O)Nc1ccc(Cc2nc3c(c(N(C)C)nn3-c3c(Cl)cc(S(N)(=O)=O)cc3Cl)c(=O)[nH]2)cc1` [Compound 86, N-{4-[1-(2,6-Dichloro-4-sulfamoyl-phenyl)-3-dimethylamino-4-oxo-4,5-dihydro-1H-pyrazolo[3,4-d]pyrimidin-6-ylmethyl]-phenyl}-2-diethylamino-acetamide], the “growth inhibitory response in words” value in experiment [1] is “growth inhibition in the middle nanomolar range”. In experiment [1] (Homo sapiens, BXPC-3, unit M), this compound gave a GI50 of 36.3 nM and a pIC50 of 7.38. In experiment [2], this compound showed a GI50 of 38.9 nM and a negative logarithm of the IC50 (pIC50) of 7.37.

Source of the values: patent publication US11091490B2, “3-amino-1,5-dihydro-pyrazolo[3,4-d]pyrimidin-4-ones as cyclin dependent kinase inhibitors” (Oncotyrol Center for Personalized Cancer Medicine GMBH, priority 2016, dated 2021).
